Measurements from ChEMBL document CHEMBL1201862, “PubChem BioAssay data set” (2004).
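Assay format: 96-well plates, 48-hour exposure. GI50: concentration for 50% inhibition of growth.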 Activity calls are given as the source filed them. Rule as the data show it: active = GI50 up to about 1.1 µM and inactive = higher.

Columns and labels:
Assay in all cases: growth of human tumour cells (NCI), 48 h
[1] = tested on: CCRF-CEM
[2] = tested on: NCI-H226
[3] = tested on: KM12
[4] = tested on: HL-60
[5] = tested on: 786-0
[6] = tested on: A549
[7] = tested on: Malme-3M
[8] = tested on: ACHN
[9] = tested on: U-251
[10] = tested on: HCC 2998
[11] = tested on: MOLT-4
[12] = tested on: OVCAR-8
[13] = tested on: EKVX
[14] = tested on: RPMI-8226
[15] = tested on: HT-29
[16] = tested on: SF-268
[17] = tested on: SK-MEL-5
[18] = tested on: NCI/ADR-RES
[19] = tested on: DU-145

SMILES | GI50 [1] | GI50 [2] | GI50 [3] | GI50 [4] | GI50 [5] | GI50 [6] | GI50 [7] | GI50 [8] | GI50 [9] | GI50 [10] | GI50 [11] | GI50 [12] | GI50 [13] | GI50 [14] | GI50 [15] | GI50 [16] | GI50 [17] | GI50 [18] | GI50 [19]
O=C(N/C(=C\c1cc(Cl)ccc1Cl)c1nc2cc(Cl)ccc2[nH]1)c1ccccc1 | 17 µM (inactive) | 17.3 µM (inactive) | 15.4 µM (inactive) | 14.3 µM (inactive) | 24.8 µM (inactive) | 16.8 µM (inactive) | 18.9 µM (inactive) | 22.5 µM (inactive) | 16.1 µM (inactive) | 18.2 µM (inactive) | 8.04 µM (inactive) | 16.1 µM (inactive) | 23 µM (inactive) | 12.2 µM (inactive) | 16.4 µM (inactive) | 13.8 µM (inactive) | 13.2 µM (inactive) | – | –
CCCCCCCCCCCCCCCCOCC(CP(=O)([O-])OCC[n+]1ccccc1)OC (stereo unspecified) | 8.2 µM (inactive) | 4.02 µM (inactive) | 2.67 µM (inactive) | 1.76 µM (inactive) | 14 µM (inactive) | 10.6 µM (inactive) | 17.8 µM (inactive) | – | – | 2.45 µM (inactive) | 4.65 µM (inactive) | 14.7 µM (inactive) | 16.5 µM (inactive) | 2.96 µM (inactive) | 4.21 µM (inactive) | 7.1 µM (inactive) | 14.1 µM (inactive) | – | –
COc1ccc(NC(=O)CC(=O)N2N=C(N(CCC#N)c3ccccc3Cl)CC2c2ccccc2)cc1 (stereo unspecified) | > 100 µM (inactive) | > 100 µM (inactive) | > 100 µM (inactive) | > 100 µM (inactive) | > 100 µM (inactive) | > 100 µM (inactive) | > 100 µM (inactive) | > 100 µM (inactive) | > 100 µM (inactive) | > 100 µM (inactive) | > 100 µM (inactive) | > 100 µM (inactive) | > 100 µM (inactive) | > 100 µM (inactive) | > 100 µM (inactive) | > 100 µM (inactive) | > 100 µM (inactive) | – | –
O=C1Nc2c(ccc(Cl)c2I)C1=O | 20.2 µM (inactive) | 22.5 µM (inactive) | 24.4 µM (inactive) | 18.5 µM (inactive) | 15 µM (inactive) | 34.9 µM (inactive) | 15 µM (inactive) | 15.6 µM (inactive) | 25.5 µM (inactive) | 19.6 µM (inactive) | 18.7 µM (inactive) | 28.2 µM (inactive) | 16.4 µM (inactive) | 15.5 µM (inactive) | 28.4 µM (inactive) | 20 µM (inactive) | 15.7 µM (inactive) | – | –
O=C(O)C(CO)NC(=O)n1c2ccccc2c2ccccc21 (stereo unspecified) | > 100 µM (inactive) | > 100 µM (inactive) | > 100 µM (inactive) | > 100 µM (inactive) | > 100 µM (inactive) | > 100 µM (inactive) | > 100 µM (inactive) | > 100 µM (inactive) | – | > 100 µM (inactive) | > 100 µM (inactive) | > 100 µM (inactive) | > 100 µM (inactive) | > 100 µM (inactive) | > 100 µM (inactive) | > 100 µM (inactive) | > 100 µM (inactive) | – | –
OCCCC(O)(c1ccccc1)c1ccccc1 | > 100 µM (inactive) | > 100 µM (inactive) | > 100 µM (inactive) | > 100 µM (inactive) | > 100 µM (inactive) | > 100 µM (inactive) | > 100 µM (inactive) | > 100 µM (inactive) | > 100 µM (inactive) | > 100 µM (inactive) | > 100 µM (inactive) | > 100 µM (inactive) | > 100 µM (inactive) | > 100 µM (inactive) | > 100 µM (inactive) | > 100 µM (inactive) | > 100 µM (inactive) | > 100 µM (inactive) | –
NC(=S)N1N=C2CCCCCC[C@@H]2[C@H]1c1ccccc1 | 31.3 µM (inactive) | 18.6 µM (inactive) | 35.2 µM (inactive) | 19.2 µM (inactive) | 67 µM (inactive) | 24.4 µM (inactive) | 59.3 µM (inactive) | 41.9 µM (inactive) | 46 µM (inactive) | 79.4 µM (inactive) | 31.8 µM (inactive) | 44.5 µM (inactive) | 27.7 µM (inactive) | 15.1 µM (inactive) | 29.2 µM (inactive) | > 100 µM (inactive) | 22.4 µM (inactive) | – | –
COC(=O)c1nc(-c2ccc(Cl)c(Cl)c2)nc2ccccc12 | > 100 µM (inactive) | 13.7 µM (inactive) | > 85.7 µM (inactive) | > 100 µM (inactive) | 21.6 µM (inactive) | 34.9 µM (inactive) | > 100 µM (inactive) | 50.5 µM (inactive) | 21.2 µM (inactive) | > 100 µM (inactive) | > 100 µM (inactive) | 14.5 µM (inactive) | > 100 µM (inactive) | > 28.9 µM (inactive) | > 100 µM (inactive) | 6.81 µM (inactive) | > 35.8 µM (inactive) | – | –
O=C(O)C1=Cc2cccc3cccc(c23)C1=O | > 100 µM (inactive) | > 100 µM (inactive) | > 100 µM (inactive) | > 100 µM (inactive) | > 100 µM (inactive) | > 100 µM (inactive) | > 100 µM (inactive) | > 100 µM (inactive) | > 100 µM (inactive) | > 100 µM (inactive) | > 100 µM (inactive) | > 100 µM (inactive) | > 100 µM (inactive) | > 100 µM (inactive) | > 100 µM (inactive) | > 100 µM (inactive) | > 100 µM (inactive) | – | –
NCCCOc1ccc([N+](=O)[O-])cc1Cl | 42.9 µM (inactive) | > 100 µM (inactive) | > 100 µM (inactive) | > 100 µM (inactive) | > 100 µM (inactive) | > 100 µM (inactive) | > 100 µM (inactive) | > 100 µM (inactive) | > 100 µM (inactive) | > 100 µM (inactive) | > 100 µM (inactive) | > 100 µM (inactive) | – | 51.8 µM (inactive) | > 100 µM (inactive) | > 100 µM (inactive) | > 100 µM (inactive) | – | –
FC(F)(F)c1ccc(Cc2nc3cc4ccccc4cc3[nH]2)cc1 | > 100 µM (inactive) | > 100 µM (inactive) | > 100 µM (inactive) | 93.1 µM (inactive) | 89.5 µM (inactive) | > 100 µM (inactive) | > 100 µM (inactive) | 49 µM (inactive) | 71.3 µM (inactive) | > 100 µM (inactive) | – | > 100 µM (inactive) | > 100 µM (inactive) | 6.97 µM (inactive) | 91.8 µM (inactive) | > 100 µM (inactive) | 54.6 µM (inactive) | > 100 µM (inactive) | > 100 µM (inactive)
COC(=O)[C@@]12OC[C@]34C([C@@H](O)C1O)[C@@]1(C)CC(=O)C(OC(=O)CC(C)C(F)(F)F)=C(C)C1C[C@H]3OC(=O)[C@H](O)[C@H]42 (stereo partly specified) | 4.03 µM (inactive) | 2.06 µM (inactive) | 11.2 µM (inactive) | 0.268 µM (active) | 1.92 µM (inactive) | 17.3 µM (inactive) | 0.215 µM (active) | 8.22 µM (inactive) | 4.79 µM (inactive) | 2 µM (inactive) | 0.771 µM (active) | 4.71 µM (inactive) | 26.5 µM (inactive) | 0.594 µM (active) | 6.92 µM (inactive) | 6.85 µM (inactive) | 1.63 µM (inactive) | – | –
CCOC(=O)c1c(C)n(-c2ccc(C)cc2)c(=O)c2ccccc2c(=O)c2c(=O)ccc(=O)c1=2 | 6.34 µM (inactive) | 18.2 µM (inactive) | 13.6 µM (inactive) | 14.1 µM (inactive) | 31 µM (inactive) | 20.2 µM (inactive) | 17 µM (inactive) | 13.4 µM (inactive) | 19.4 µM (inactive) | 14.3 µM (inactive) | 2.87 µM (inactive) | 16.2 µM (inactive) | 21.6 µM (inactive) | 4.7 µM (inactive) | 12.2 µM (inactive) | 19.8 µM (inactive) | 14.7 µM (inactive) | 18.5 µM (inactive) | 20 µM (inactive)
CC1=C(C(=O)Nc2ccccc2C)C(c2ccco2)C(C(=O)Nc2ccccc2C)=C(C)N1C | 50 µM (inactive) | > 100 µM (inactive) | > 100 µM (inactive) | > 100 µM (inactive) | > 100 µM (inactive) | > 100 µM (inactive) | > 100 µM (inactive) | > 100 µM (inactive) | > 100 µM (inactive) | > 100 µM (inactive) | 51.2 µM (inactive) | > 100 µM (inactive) | > 100 µM (inactive) | > 100 µM (inactive) | > 100 µM (inactive) | > 100 µM (inactive) | > 100 µM (inactive) | – | –
CC(C)=CCC/C(C)=C/CC/C(C)=C/[C@@H]1[C@@H](CO)[C@]1(C)CC/C=C(\C)CCC=C(C)C | 0.251 µM (active) | 19.4 µM (inactive) | 35.7 µM (inactive) | – | 18.4 µM (inactive) | 39.8 µM (inactive) | > 100 µM (inactive) | 17.2 µM (inactive) | 53.7 µM (inactive) | – | 28.9 µM (inactive) | 17.1 µM (inactive) | 20.2 µM (inactive) | 25.2 µM (inactive) | 42.8 µM (inactive) | 19.4 µM (inactive) | 46 µM (inactive) | 22.4 µM (inactive) | 39.6 µM (inactive)
C=C1[C@@H]2CCC(C)(C)[C@H]1CCC(=O)[C@@H]2C(=O)OC | > 100 µM (inactive) | > 100 µM (inactive) | – | > 100 µM (inactive) | > 100 µM (inactive) | > 100 µM (inactive) | > 100 µM (inactive) | > 100 µM (inactive) | > 100 µM (inactive) | > 100 µM (inactive) | > 100 µM (inactive) | > 100 µM (inactive) | > 100 µM (inactive) | > 100 µM (inactive) | > 100 µM (inactive) | > 100 µM (inactive) | > 100 µM (inactive) | – | –
